From PubChem BioAssay AID248 (DTP/NCI, 2004)
“And” between values parts separate entries of the source, which are not always exact repeats. Equal values may be shown once. Inconclusive results and toxic doses are left out.

Tested on: L1210 leukemia ip in BDF1 mice, survival T/C
Assay: NCI In Vivo Anticancer Drug Screen. Data for tumor model L1210 Leukemia (intraperitoneal) in B6D2F1 (BDF1) mice
Details: endpoint: mean survival time, higher = longer survival
Summary of the method: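 Tumor was transplanted into mice, which were then dosed with test compound or vehicle alone. Survival was recorded for each group, and the treated figure was expressed relative to the control figure.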

[1] = dose: 100.0 mg/kg/injection, schedule: Q04DX002 (ip), vehicle: saline
[2] = dose: 200.0 mg/kg/injection, schedule: Q04DX002 (ip), vehicle: saline
[3] = dose: 100.0 mg/kg/injection, schedule: Q01DX001 (ip), vehicle: saline
[4] = dose: 200.0 mg/kg/injection, schedule: Q01DX001 (ip), vehicle: saline
[5] = dose: 100.0 mg/kg/injection, schedule: Q01DX001 (ip), vehicle: carboxymethylcellulose (CMC)
[6] = dose: 100.0 mg/kg/injection, schedule: Q01DX009 (ip), vehicle: Klucel (hydroxypropylcellulose) (HPC)
[7] = dose: 100.0 mg/kg/injection, schedule: Q04DX003 (ip), vehicle: Klucel (hydroxypropylcellulose) (HPC)
[8] = dose: 200.0 mg/kg/injection, schedule: Q01DX001 (ip), vehicle: carboxymethylcellulose (CMC)
[9] = dose: 200.0 mg/kg/injection, schedule: Q01DX009 (ip), vehicle: Klucel (hydroxypropylcellulose) (HPC)
[10] = dose: 200.0 mg/kg/injection, schedule: Q04DX003 (ip), vehicle: Klucel (hydroxypropylcellulose) (HPC)
[11] = dose: 400.0 mg/kg/injection, schedule: Q01DX009 (ip), vehicle: Klucel (hydroxypropylcellulose) (HPC)
[12] = dose: 400.0 mg/kg/injection, schedule: Q04DX003 (ip), vehicle: Klucel (hydroxypropylcellulose) (HPC)
[13] = dose: 100.0 mg/kg/injection, schedule: Q01DX009 (ip), vehicle: saline with Tween-80
[14] = dose: 100.0 mg/kg/injection, schedule: Q04DX003 (ip), vehicle: saline with Tween-80
[15] = dose: 200.0 mg/kg/injection, schedule: Q01DX009 (ip), vehicle: saline with Tween-80
[16] = dose: 200.0 mg/kg/injection, schedule: Q04DX003 (ip), vehicle: saline with Tween-80
[17] = dose: 400.0 mg/kg/injection, schedule: Q01DX009 (ip), vehicle: saline with Tween-80
[18] = dose: 400.0 mg/kg/injection, schedule: Q04DX003 (ip), vehicle: saline with Tween-80
[19] = dose: 100.0 mg/kg/injection, schedule: Q04DX002 (ip), vehicle: Klucel (hydroxypropylcellulose) (HPC)
[20] = dose: 200.0 mg/kg/injection, schedule: Q04DX002 (ip), vehicle: Klucel (hydroxypropylcellulose) (HPC)
[21] = dose: 400.0 mg/kg/injection, schedule: Q04DX002 (ip), vehicle: Klucel (hydroxypropylcellulose) (HPC)
[22] = dose: 300.0 mg/kg/injection, schedule: Q01DX001 (ip), vehicle: carboxymethylcellulose (CMC)
[23] = dose: 25.0 mg/kg/injection, schedule: Q04DX003 (ip), vehicle: saline
[24] = dose: 100.0 mg/kg/injection, schedule: Q04DX003 (ip), vehicle: saline

With NOC(=O)c1ccccc1 the T/C [1] was 105 % of control and the T/C [2] was 102 % of control.
With O=S(=O)(/C(=C\c1ccccc1)c1ccccc1)c1ccccc1 the T/C [3] was 90 % of control, the T/C [4] was 93 % of control and the T/C (dose: 400.0 mg/kg/injection, schedule: Q01DX001 (ip), vehicle: saline) was 93 % of control.
O=C(O)c1cccc([N+](=O)[O-])c1O was tested, and the T/C (dose: 12.5 mg/kg/injection, schedule: Q04DX002 (ip), vehicle: saline with Tween-80) was 95 % of control, the T/C (dose: 25.0 mg/kg/injection, schedule: Q04DX002 (ip), vehicle: saline with Tween-80) was 95 % of control and the T/C (dose: 50.0 mg/kg/injection, schedule: Q01DX001 (ip), vehicle: carboxymethylcellulose (CMC)) was 97 % of control. The T/C (dose: 50.0 mg/kg/injection, schedule: Q04DX002 (ip), vehicle: saline with Tween-80) was 100 % of control, the T/C [5] was 87 % of control and the T/C [6] was 103 % of control. The T/C [7] was 93 % of control, the T/C [8] was 87 % of control and the T/C [9] was 95 % of control. The T/C [10] was 90 % of control, the T/C (dose: 400.0 mg/kg/injection, schedule: Q01DX001 (ip), vehicle: carboxymethylcellulose (CMC)) was 92 % of control and the T/C [11] was 93 % of control. The T/C [12] was 96 % of control.
With CN(C)C(=S)[S][Sb]([c]1ccccc1)[c]1ccccc1 the T/C (dose: 100.0 mg/kg/injection, schedule: Q01DX001 (ip), vehicle: other) was 96 % of control.
CCOC(=O)CCC(C(=O)OCC)C(=O)OCC was tested, and the T/C [13] was 86 % of control, the T/C [14] was 106 % of control and the T/C [15] was 88 % of control. For the same compound, the T/C [16] was 103 % of control, the T/C [17] was 88 % of control and the T/C [18] was 94 % of control.
With Cc1cc([N+](=O)[O-])c(NC2CCCCC2)c([N+](=O)[O-])c1 the T/C [19] was 100 % of control, the T/C [20] was 93 % of control and the T/C [21] was 96 % of control.
In the case of NNC(=O)CNc1ccc(F)c(C(F)(F)F)c1, the T/C [19] is reported as 107 % of control and the T/C [20] is reported as 118 % of control.
In the case of O=NN(CCCl)C(=O)Nc1ccc(Cl)c(Cl)c1, the T/C (dose: 5.0 mg/kg/injection, schedule: Q01DX009 (ip), vehicle: carboxymethylcellulose (CMC)) is reported as 121 % of control, the T/C (dose: 8.0 mg/kg/injection, schedule: Q01DX009 (ip), vehicle: carboxymethylcellulose (CMC)) is reported as 114 % of control and the T/C (dose: 17.0 mg/kg/injection, schedule: Q01DX015 (ip), vehicle: carboxymethylcellulose (CMC)) is reported as 114 % of control. For the same compound, the T/C (dose: 26.0 mg/kg/injection, schedule: Q01DX015 (ip), vehicle: carboxymethylcellulose (CMC)) was 163 % of control and 167 % of control, the T/C (dose: 39.0 mg/kg/injection, schedule: Q01DX015 (ip), vehicle: carboxymethylcellulose (CMC)) was 119 % of control and 121 % of control and the T/C (dose: 58.0 mg/kg/injection, schedule: Q01DX015 (ip), vehicle: carboxymethylcellulose (CMC)) was 117 % of control and 89 % of control. The T/C [5] was 116 % of control, the T/C [8] was 161 % of control and the T/C [22] was 89 % of control.
In the case of Cc1nc2cc(N=Cc3ccc(N(CCCl)CCCl)cc3F)ccc2n1C, the T/C [19] is reported as 104 % of control, the T/C [20] is reported as 101 % of control and the T/C [21] is reported as 104 % of control.
In the case of CC[C@@H]1CN(C)[C@H]2Cc3c([nH]c4ccccc34)C(=O)C[C@H]1C2C(=O)OC (stereo not given in full), the T/C (dose: 75.0 mg/kg/injection, schedule: Q01DX001 (ip), vehicle: carboxymethylcellulose (CMC)) is reported as 97 % of control, the T/C (dose: 150.0 mg/kg/injection, schedule: Q01DX001 (ip), vehicle: carboxymethylcellulose (CMC)) is reported as 95 % of control and the T/C [22] is reported as 95 % of control.
For N#C/C(=C\c1c[nH]c2ccccc12)c1ccc([N+](=O)[O-])cc1, the T/C (dose: 100.0 mg/kg/injection, schedule: Q04DX002 (ip), vehicle: gum acacia) was 95 % of control and the T/C (dose: 200.0 mg/kg/injection, schedule: Q04DX002 (ip), vehicle: gum acacia) was 101 % of control.
For CC(C)=NOS(=O)(=O)c1ccc(C)cc1, the T/C (dose: 75.0 mg/kg/injection, schedule: Q01DX009 (ip), vehicle: saline) was 103 % of control, the T/C (dose: 75.0 mg/kg/injection, schedule: Q04DX003 (ip), vehicle: saline) was 88 % of control and the T/C (dose: 150.0 mg/kg/injection, schedule: Q01DX009 (ip), vehicle: saline) was 98 % of control. The T/C (dose: 150.0 mg/kg/injection, schedule: Q04DX003 (ip), vehicle: saline) was 92 % of control, the T/C (dose: 300.0 mg/kg/injection, schedule: Q01DX009 (ip), vehicle: saline) was 101 % of control and the T/C (dose: 300.0 mg/kg/injection, schedule: Q04DX003 (ip), vehicle: saline) was 88 % of control.
In the case of Cn1c(=O)c2c(ncn2CC(O)CO)n(C)c1=O (stereo not given) (tested in a mixture with another compound), the T/C [14] is reported as 101 % of control, the T/C [16] is reported as 98 % of control and the T/C [18] is reported as 95 % of control.
C#CC1(NC(=O)NC(C)(C)C)CCCCC1 was tested, and the T/C (dose: 100.0 mg/kg/injection, schedule: Q04DX002 (ip), vehicle: saline with Tween-80) was 97 % of control, the T/C (dose: 200.0 mg/kg/injection, schedule: Q04DX002 (ip), vehicle: saline with Tween-80) was 97 % of control and the T/C (dose: 400.0 mg/kg/injection, schedule: Q04DX002 (ip), vehicle: saline with Tween-80) was 97 % of control.
With Cc1ccc(/C=N/NC(=O)CNC(=O)c2ccccc2)cc1 the T/C [13] was 93 % of control, the T/C [15] was 96 % of control and the T/C [17] was 98 % of control.
In the case of CCC(=O)OCC1CCCO1 (stereo not given), the T/C [6] is reported as 103 % of control, the T/C [9] is reported as 103 % of control and the T/C [11] is reported as 101 % of control.
In the case of CCCCCCCCOC(=O)CC, the T/C [1] is reported as 111 % of control, the T/C [2] is reported as 107 % of control and the T/C (dose: 400.0 mg/kg/injection, schedule: Q04DX002 (ip), vehicle: saline) is reported as 100 % of control.
With [Cu+].[S-]c1ccsc1 the T/C (dose: 10.0 mg/kg/injection, schedule: Q01DX001 (ip), vehicle: carboxymethylcellulose (CMC)) was 95 % of control, the T/C (dose: 20.0 mg/kg/injection, schedule: Q01DX001 (ip), vehicle: carboxymethylcellulose (CMC)) was 93 % of control and the T/C (dose: 40.0 mg/kg/injection, schedule: Q01DX001 (ip), vehicle: carboxymethylcellulose (CMC)) was 90 % of control. For the same compound, the T/C (dose: 80.0 mg/kg/injection, schedule: Q01DX001 (ip), vehicle: carboxymethylcellulose (CMC)) was 106 % of control.
In the case of CCOC(=O)CC/C(=C/c1cccc2ccccc12)[N+](=O)[O-], the T/C [14] is reported as 105 % of control and the T/C [16] is reported as 94 % of control.
With O=C(/C=C/c1cccc([N+](=O)[O-])c1)NCCBr the T/C [6] was 101 % of control, the T/C [7] was 95 % of control and the T/C [9] was 101 % of control. For the same compound, the T/C [10] was 97 % of control and the T/C [12] was 95 % of control.
For [Cu+2].[NH-]C(CCC(N)=O)C(=O)O.[NH-]C(CCC(N)=O)C(=O)O (stereo not given), the T/C (dose: 6.25 mg/kg/injection, schedule: Q04DX003 (ip), vehicle: saline) was 96 % of control, the T/C (dose: 12.5 mg/kg/injection, schedule: Q04DX003 (ip), vehicle: saline) was 91 % of control and the T/C [23] was 100 % of control.
COc1ccc2c(c1)CC[C@@H]1[C@@H]2CC[C@]2(C)[C@@H](O)C(=O)C[C@@H]12 was tested, and the T/C [13] was 90 % of control, the T/C [24] was 94 % of control and the T/C [15] was 92 % of control. For the same compound, the T/C (dose: 200.0 mg/kg/injection, schedule: Q04DX003 (ip), vehicle: saline) was 88 % of control, the T/C [17] was 90 % of control and the T/C (dose: 400.0 mg/kg/injection, schedule: Q04DX003 (ip), vehicle: saline) was 91 % of control.
NNS(=O)(=O)Cc1ccccc1 was tested, and the T/C [3] was 100 % of control and the T/C [4] was 95 % of control.
With O=C(CCN1CCCCCCC1)c1cccc([N+](=O)[O-])c1 the T/C [23] was 97 % of control, the T/C (dose: 50.0 mg/kg/injection, schedule: Q01DX009 (ip), vehicle: saline) was 101 % of control and the T/C (dose: 50.0 mg/kg/injection, schedule: Q04DX003 (ip), vehicle: saline) was 104 % of control. For the same compound, the T/C (dose: 100.0 mg/kg/injection, schedule: Q01DX009 (ip), vehicle: saline) was 91 % of control and the T/C [24] was 97 % of control and 105 % of control.
